Measured values from patent publication US6462023B1, “Cytostatic agents” (British Biotech Pharmaceuticals, Ltd., priority 1988, dated 2002).
Like-named read-outs stand apart in the source and are kept apart here.

Assays:
[1] = tested on: histiocytic lymphoma (U937); assay: cell proliferation assay ([methyl-3H] thymidine incorporation), U937; format: cell-based, human; settings: Homo sapiens, U-937, 72 hours in culture, n=6, read-out: U937: percentage of control 3[H] Thymidine incorporation
Experimental: (§1) Two human cell lines namely a histiocytic lymphoma (U937) and a melanoma (RPMI-7951) were seeded into 30 mm^2 tissue culture wells, in the appropriate culture medium supplemented with 10% fetal calf serum at a density of 250 cells/mm^2. Six hours later the test compounds were added in the same culture medium to the cells to give a final concentration of 6 μM. Control wells contained cells supplemented with the same culture medium containing the equivalent amount of drug vehicle, which in this case was DMSO at a final concentration of 0.08%. After 72 hours in culture the cells were pulsed for 3 hours with [methyl-^3[H] Thymidine] (2 μCi/ml) and then harvested onto filter mats and DNA associated radioactivity counted. Results are expressed as percentage of control ^3[H] Thymidine incorporation (n=6±1 stdv).
Further examples were tested in the U937 assay described above at 6 μM and the results, expressed as percentage of control ^3[H] Thymidine incorporation (n=6±1 stdv), are set out in the following Table 2.
as §1, with “A” for “Two”, “line,” for “lines”, “(U937), was” for “(U937) and a melanoma (RPMI-7951) were”, “30MM^2” for “30 mm^2”, “cellS/MM^2.” for “cells/mm^2.”, “were” for “are”

[2] = tested on: melanoma (RPMI-7951); assay: cell proliferation assay ([methyl-3H] thymidine incorporation), RPMI-7951; format: cell-based, human; settings: Table 1; final concentration 6 μM; 72 hours in culture, 3 hours pulse; n=6
Experimental: as §1

[3] = Table 1, final concentration 6 μM, 3 hours pulse

| SMILES | activity at 6 µM [1, 3] [%] | RPMI: percentage of control 3[H] Thymidine incorporation [2] | activity at 6 µM ([1]; Table 2, 6 μM) [%] |
| --- | --- | --- | --- |
| C=CC[C@H](C(=O)NO)[C@@H](CC(C)C)C(=O)N[C@@H](Cc1ccccc1)C(=O)OC [Example 1, 2S-(3S-Hydroxycarbamoyl-2R-isobutyl-hex-5-enoylamino)-3-phenylpropionic acid methyl ester] | 7 | 40 percentage of control | – |
| C=CC[C@H](C(=O)NO)[C@@H](CC(C)C)C(=O)N[C@@H](Cc1ccccc1)C(=O)OCC [Example 2, 2S-(3S-Hydroxycarbamoyl-2R-isobutyl-hex-5-enoylamino)-3-phenylpropionic acid ethyl ester] | 7 | 37 percentage of control | – |
| C=CC[C@H](C(=O)NO)[C@@H](CC(C)C)C(=O)N[C@@H](Cc1ccccc1)C(=O)OC(C)C [Example 3, 2S-(3S-Hydroxycarbamoyl-2R-isobutyl-hex-5-enoylamino)-3-phenylpropionic acid isopropyl ester] | 2.5 | 27 percentage of control | – |
| COC(=O)[C@H](Cc1ccccc1)NC(=O)[C@H](CC(C)C)[C@H](C)C(=O)NO [Example 5, 3R-(2-Phenyl-1S-methylcarboxy-ethylcarbamoyl)-2S, 5-dimethylhexanohydroxamic acid] | 19 | 82 percentage of control | – |
| C=CC[C@H](C(=O)NO)[C@@H](CC(C)C)C(=O)N[C@@H](Cc1ccccc1)C(=O)OC1CCN(C)CC1 [Example 29, 2S-(3S-Hydroxycarbamoyl-2R-isobutyl-hex-5-enoylamino)-3-phenylpropionic acid 1-methyl-piperidin-4-yl ester] | – | – | 49 |
| C=CC[C@H](C(=O)NO)[C@@H](CC(C)C)C(=O)N[C@@H](Cc1ccccc1)C(=O)OC(CC)CC [Example 30, 2S-(3S-Hydroxycarbamoyl-2R-isobutyl-hex-5-enoylamino)-3-phenylpropionic acid 1-ethyl-propyl ester] | – | – | 6 |
| C=CC[C@H](C(=O)NO)[C@@H](CC(C)C)C(=O)N[C@@H](Cc1ccccc1)C(=O)O[C@@H](C)CCC [Example 31, 2S-(3S-Hydroxycarbamoyl-2R-isobutyl-hex-5-enoylamino)-3-phenylpropionic acid 1S-methyl-butyl ester] | – | – | 7 |
| C=CC[C@H](C(=O)NO)[C@@H](CC(C)C)C(=O)N[C@@H](Cc1ccccc1)C(=O)OC1CCCCC1 [Example 32, 2S-(3S-Hydroxycarbamoyl-2R-isobutyl-hex-5-enoylamino)-3-phenylpropionic acid cyclohexyl ester] | – | – | 0 |
| C=CC[C@H](C(=O)NO)[C@@H](CC(C)C)C(=O)N[C@@H](Cc1ccccc1)C(=O)O[C@H](C)CCC [Example 34, 2S-(3S-Hydroxycarbamoyl-2R-isobutyl-hex-5-enoylamino)-3-phenylpropionic acid 1R-methyl-butyl ester] | – | – | 3 |
| C=CC[C@H](C(=O)NO)[C@@H](CC(C)C)C(=O)N[C@@H](Cc1ccccc1)C(=O)OC1CCOC1 (stereo partly drawn) [Example 35, 2S-(3S-Hydroxycarbamoyl-2R-isobutyl-hex-5-enoylamino)-3-phenylpropionic acid tetrahydro-furan-3(R, S)-yl ester] | – | – | 14 |
| C=CC[C@H](C(=O)NO)[C@@H](CC(C)C)C(=O)N[C@H](C(=O)OC1CCCC1)C(C)(C)C [Example 36, 2S-(3S-Hydroxycarbamoyl-2R-isobutyl-hex-5-enoylamino)-3,3-dimethyl-butyric acid cyclopentyl ester] | – | – | 51 |
| CC(C)C[C@@H](C(=O)N[C@@H](Cc1ccccc1)C(=O)OC1CCCC1)[C@@H](C(=O)NO)C1CCCC1 [Example 37, 2S-[2R-(1S-Cyclopentyl-hydroxycarbamoyl-methyl)-4-methyl-pentanoylamino]-3-phenyl-propionic acid cyclopentyl ester] | – | – | 0 |
| C#CC[C@@H](C(=O)N[C@@H](Cc1ccccc1)C(=O)OC1CCCC1)[C@H](O)C(=O)NO [Example 38, 2S-[2R-(1S-Hydroxy-hydroxycarbamoyl-methyl)-pent-4-ynoylamino]-3-phenylpropionic acid cyclopentyl ester] | – | – | 37 |
| C=CC[C@H](C(=O)NO)[C@@H](CC(C)C)C(=O)N[C@@H](Cc1cccnc1)C(=O)OC1CCCC1 [Example 39, 2S-(3S-Hydroxycarbamoyl-2R-isobutyl-hex-5-enoylamino)-3-pyridin-3-yl-propionic acid cyclopentyl ester] | – | – | 26 |
| C=CC[C@H](C(=O)NO)[C@@H](CC(C)C)C(=O)N[C@@H](COC(C)(C)C)C(=O)OC1CCCC1 [Example 40, 3-tert-Butoxy-2S-(3S-hydroxcarbamoyl-2R-isobutyl-hex-5-enoylamino)-propionic acid cyclopentyl ester] | – | – | 0 |
| C=CC[C@H](C(=O)NO)[C@@H](CC(C)C)C(=O)N[C@H](C(=O)OC1CCCC1)c1ccccc1 [Example 41, 2S-(3S-Hydroxycarbamoyl-2R-isobutyl-hex-5-enoylamino)-2-phenylethanoic acid cylcopentyl ester] | – | – | 0 |
| O=C(OC1CCCC1)[C@H](Cc1ccccc1)NC(=O)[C@H](CC#Cc1ccccc1Cl)[C@H](O)C(=O)NO [Example 42, 2S-[5-(2-Chlorophenyl)-2R-(1S-hydroxy-hydroxycarbamoyl-methyl)-pent-4-ynoylamino]-3-phenylpropionic acid cyclopentyl ester] | – | – | 0 |
